These results are taken from US6458580B1, “Fungal sulphur source and method of using the same” (Commonwealth Scientific and Industrial Research Organisation, priority 1997, dated 2002).

Test [1] relates to rumen fungi. The experiment in a line: Effect of different intra-ruminal doses on fungal zoospore numbers in the rumen. Type of test: in vivo, sheep. The procedure:
Six cross-bred sheep [[…]] having rumen cannula were moved metabolism cages equipped with automatic feeders. They were given eight equal buckets of feed a day (three hourly) and offered water ad-lib. The sheep were offered 1.1 kg of a low sulphur feed (see below). After a period of three weeks on the diet rumen digesta was collected and rumen fluid (150 ml)was taken for zoospore counts. (An extra 100 ml of rumen digest was taken from each animal combined and mixed and 100 ml returned to each rumen to minimise differences between animals.) Zoospores were assessed by standard methods for handling anaerobic fungi. Serial dilutions of rumen fluid were prepared using an anaerobic diluent. Agar roll tubes were inoculated using a syringe with 0.2 ml of either a dilution of rumen fluid or undiluted rumen fluid. The media used was one mimicking the rumen environment but without added rumen fluid and with antibiotics (penicillin and streptomycin) added to stop overgrowth by rumen bacteria. After incubation the number of thallus forming units were counted and the number of zoospores in the rumen fluid calculated. […] The sheep were initially infused at the rate of 0.4 mMoles sulphur per day per 4 liters (ie 0.1 mM in rumen) This was equivalent to 12.67 mg Sulphur/day. The same protocols were used with successively higher doses. […] Each infusion was for one weeks before sampling rumen fluid and infusing the higher dose. […] Wheat straw was milled and approximately 40 kg quantities were transferred from the Gell feed mill to a mixer where 4 l of 40% NaOH was added while mixing. The feed was bagged (approximately two bags per 40 kg) and left for several days before a minerals mix was added. Two bags were placed in the mixer and the compounds in Table 3 were added. Trace elements were made up in 140 ml in water and were added to the urea which was previously dissolved in 25 Liters of water. This solution was then added to two bags of alkali treated feed while mixing. The remaining dry chemicals were mixed and the appropriate amount added (1.638 kg) onto the mixing feed. […]

A short description of test [2]: Effect of infusion on feed intake and digestibility. Type of test: in vivo, sheep. As to conditions: for Digested DM, MPA / Digestibility (% DM), MPA / Intake DM, MPA: MPA infused at 192 mg Sulphur/sheep/day; for Digested DM, MPA / Digestibility (% DM), MPA / Intake DM, MPA / Digested DM, % (+) / Digestibility, % (+) / Intake DM, % (+) increase after infusion of MPA: individual sheep and Aver. n = 13; for Digested DM, % (+) / Digestibility, % (+) / Intake DM, % (+) increase after infusion of MPA: versus control period. The procedure:
Feed was prepared as previously described (see example 4). Initially 22 sheep were fed 1 kg of alkali straw/day in the animal house for 4 days to select out sheep not eating the diet. 19 sheep were weighted and transferred to metabolism cages and feed the alkali straw diet ad-lib. Sheep were fed and on the following day the feed refusal weighted and if less then 100 g remained a further 100 g was fed; if 100-200g of feed remained the sheep was given the same amount of feed; if over 200 g of feed was left the sheep was given 100 g less feed. Over the following week another 6 sheep were moved out of the experiment (usually due to very low or erratic intakes). […] After 14 days infusion the collection period of 7 days commenced. Feed refusals were weighted, recorded, and a sample of up to 200 g/day pooled for subsequent analyses. Spilt feed was collected daily, weighted, recorded, and discarded. Faeces were collected with separators that excluded urine. The faeces were weighed and sub-sampled and pooled for subsequent analyses. Pooled faeces and feed were stored at −20° C. and then dried in a hot air oven (faeces were initially dried at 70° C.) at 100° C. cooled and weighted to determine dry weight (DM). Following the last sampling the infusion was stopped in the first group of sheep and on the following day the infusion treatment was begun in the other group of seven sheep. The second period (the crossover) was conducted in the same way as the first period with the same samples being taken at the same times.

Where “and” joins values, the source holds several entries; their conditions need not be identical. Identical values can stand only once.

In the case of `O=C(O)CCS` [MPA, 3-mercaptopropanoic acid], the levels of fungi result in test [1] (dose of 0.75 mM (95 mg S/day), four of the six animals) is “≈ 1000 /ml”. Also, the “optimum level of MPA” value in test [1] (rumen concentration, 190 mg S/day, very low S content diet) is recorded as 1.5 mM. In test [1] (sheep on low sulphur diet (0.052% sulphur), 0-5.0 mM in rumen, seven days per dose, FIG. 3), the “relation between concentration of MPA in the rumen and numbers of zoospores in rumen fluid” value is reported as “clear dose response”. Moreover, the “response in digestive performance to infusion” value in test [2] (192 mg Sulphur/day/sheep, with the exception of one animal) is “strong, positive, response”. Besides, in test [2] (Table 4), the “Digested DM, MPA” value was 357.26 g/day and 603.65 g/day and 558.00 g/day and 518.94 g/day and 806.76 g/day and 603.24 g/day and 630.64 g/day and 662.31 g/day and 673.01 g/day and 657.21 g/day and 714.69 g/day and 347.27 g/day and 414.97 g/day; the “Digestibility (% DM), MPA” value is 50.799 % DM and 51.891 % DM and 45.708 % DM and 52.812 % DM and 58.076 % DM and 53.589 % DM and 46.808 % DM and 51.433 % DM and 53.840 % DM and 51.933 % DM and 48.119 % DM and 54.648 % DM and 51.522 % DM; the “Intake DM, MPA” value is 703 g/day and 1163 g/day and 1221 g/day and 983 g/day and 1389 g/day and 1126 g/day and 1347 g/day and 1288 g/day and 1250 g/day and 1265 g/day and 1485 g/day and 635 g/day and 805 g/day; the “Digested DM, % (+)” value is 38.13% and 51.61% and 32.51% and 37.28% and 41.04% and 36.94% and 24.76% and 17.23% and 46.34% and 40.49% and 9.57% and 38.47% and 63.31%. In test [2] (Table 4), the “Digestibility, % (+)” value was 5.019% and 7.795% and 2.610% and 1.453% and 5.112% and 7.462% and 2.544% and 0.444% and 2.855% and 4.777% and 0.002% and 7.459% and 7.799%; the “Intake DM, % (+) increase after infusion of MPA” value (“Intake DM, % (+) increase” for short) was 24.5% and 28.8% and 24.9% and 33.5% and 28.6% and 17.9% and 18.0% and 16.2% and 38.6% (2×) and 27.5% and 9.6% and 19.6%. Moreover, in test [2] (Table 4, mean of 13 sheep), the “Digested DM, MPA” value is 581 g/day; the “Digestibility (% DM), MPA” value amounted to 51.6 % DM; the “Intake DM, MPA” value is 1128 g/day; the “Digested DM, % (+)” value was determined as 36.75%. In test [2] (Table 4, mean of 13 sheep), the “Digestibility, % (+)” value was determined as 4.26% and the “Intake DM, % (+) increase” value was 25.1%. In test [2] (Table 5), the “Intake DM, MPA” value is 805 g/day and 703 g/day and 1163 g/day and 1221 g/day and 983 g/day and 1389 g/day and 1126 g/day and 1347 g/day and 1288 g/day and 1250 g/day and 1265 g/day and 1485 g/day and 635 g/day; the “Intake DM, % (+) increase” value was 38.6% (2×) and 24.5% and 28.8% and 24.9% and 33.5% and 28.6% and 17.9% and 18.0% and 16.2% and 27.5% and 9.6% and 19.6%. Also, in test [2] (Table 5, mean), the “Intake DM, MPA” value is 1128 g/day and the “Intake DM, % (+) increase” value was 25.1%.
